What was measured:
rat [1] = settings: Subchronic oral toxicity in rodents, other, Feed, dose end: 3 month, group: systemic
rat [2] = settings: Prenatal developmental toxicity study, other, Oral, Gavage/Intubation, dose end: 15 GD
rat [3] = settings: Multigenerational reproductive toxicity study, sprague dawley, Oral, Feed, dose end: 2 generation
mouse [4] = settings: Carcinogenicity; other; Oral; Feed; dose end: 18 month; group: systemic; systemic / clinical chemistry / alanine aminotransferase (alt/sgpt) / alanine aminotransferase (alt/sgpt) + systemic / clinical chemistry / …
dog [5] = settings: Subchronic oral toxicity in nonrodent, beagle, Feed, dose end: 90 day, group: systemic
dog [6] = settings: Chronic toxicity; beagle; Oral; Feed; dose end: 52 week; group: systemic; systemic / in life observation / body weight / body weight gain + systemic / in life observation / clinical signs / abnormal gait + systemic…
rat [7] = settings: Combined chronic toxicity/carcinogenicity, other, Oral, Feed, dose end: 24 month, group: systemic
mouse [8] = settings: Subchronic oral toxicity in rodents, b6c3f1, Gavage/Intubation, dose end: 14 week, group: systemic
rat [9] = settings: Prenatal developmental toxicity study, wistar, Oral, Gavage/Intubation, dose end: 15 GD
rat [10] = settings: Combined chronic toxicity/carcinogenicity; fischer; Oral; Gavage/Intubation; dose end: 2 year; group: systemic; systemic / pathology microscopic / kidney / hyperplasia + systemic / pathology microscopic / kidney / nephropathy + systemic / pathology …
rat [11] = settings: Peri- and post-natal toxicity study (Segment III), wistar, Oral, Gavage/Intubation, dose end: 21 PND
mouse [12] = settings: Combined chronic toxicity/carcinogenicity, b6c3f1, Oral, Gavage/Intubation, dose end: 2 year, group: systemic
rat [13] = settings: Subchronic oral toxicity in rodents, fischer, Gavage/Intubation, dose end: 14 week, group: systemic
[14] = systemic / clinical chemistry / alkaline phosphatase (alp/alk) / alkaline phosphatase (alp/alk) + systemic / organ weight / liver / absolute…
[15] = group: developmental, developmental / developmental malformation / bone / incomplete ossification + developmental / developmental malformation / bone / irregular …
[16] = group: maternal, systemic / in life observation / body weight / body weight gain
[17] = group: offspring, developmental / offspring survival late / lactation index / lactation index + systemic / in life observation / body weight / offspring (pup…
[18] = group: parental, systemic / in life observation / body weight / body weight gain + systemic / in life observation / food consumption / food consumption + …
[19] = systemic / in life observation / clinical signs / skin ulceration
[20] = systemic / in life observation / clinical signs / skin ulceration + systemic / clinical chemistry / alkaline phosphatase (alp/alk) / …
[21] = systemic / pathology microscopic / kidney / pigmentation + systemic / pathology microscopic / liver / hypertrophy
[22] = systemic / pathology microscopic / kidney / pigmentation + systemic / pathology microscopic / liver / hypertrophy + systemic / pathology …
[23] = systemic / organ weight / kidney / relative to body weight + systemic / organ weight / liver / absolute
[24] = group: developmental, developmental / developmental malformation / bone / [other] + developmental / developmental malformation / bone / delayed ossification + …
[25] = group: maternal, reproductive / reproductive performance / implantations / implantations + systemic / in life observation / body weight / body weight gain + …
[26] = group: developmental, developmental / developmental landmark / eye opening / eye opening + developmental / developmental landmark / pinna unfolding / pinna …
[27] = group: maternal, reproductive / reproductive performance / dystocia / dystocia + reproductive / reproductive performance / fertility / fertility + …
[28] = group: offspring, systemic / in life observation / body weight / offspring (pup) weight
[29] = group: parental, systemic / in life observation / body weight / body weight + systemic / in life observation / body weight / body weight gain + systemic / in…
[30] = systemic / pathology microscopic / liver / adenoma/carcinoma combined + systemic / pathology microscopic / liver / adenoma + systemic / …
[31] = systemic / organ weight / kidney / absolute + systemic / organ weight / kidney / relative to body weight + systemic / organ weight / liver…

With C#CCOC(=O)[C@@H](C)Oc1ccc(Oc2ncc(Cl)cc2F)cc1 [Clodinafop-propargyl mixt.] the LEL (rat [1]; [14]) was 8.24 mg/kg/day, the LOAEL (rat [1]; [14]) was 8.24 mg/kg/day and the NOAEL (rat [1]; [14]) was 0.92 mg/kg/day. For the same compound, the NEL (rat [1]; systemic / hematology / erythrocyte (rbc) count differential / erythrocyte (rbc) + systemic / hematology / hemoglobin (hgb) / hemoglobin (…) was 0.92 mg/kg/day, the LEL (rat [2]; [15]) was 40 mg/kg/day and the LOAEL (rat [2]; [15]) was 40 mg/kg/day. For the same compound, the NEL (rat [2]; [15]) was 5 mg/kg/day, the NOAEL (rat [2]; [15]) was 5 mg/kg/day and the LEL (rat [2]; [16]) was 5 mg/kg/day. For the same compound, the LOAEL (rat [2]; [16]) was greater than 160 mg/kg/day, the NEL (rat [2]; [16]) was less than 5 mg/kg/day and the NOAEL (rat [2]; [16]) was no less than 160 mg/kg/day. The LEL (rat [3]; [17]) was 31.7 mg/kg/day, the LOAEL (rat [3]; [17]) was 31.7 mg/kg/day and the NEL (rat [3]; [17]) was 3.21 mg/kg/day. The NOAEL (rat [3]; [17]) was 3.21 mg/kg/day, the LEL (rat [3]; [18]) was 31.7 mg/kg/day and the LOAEL (rat [3]; [18]) was 31.7 mg/kg/day. It also gave an NEL (rat [3]; [18]) of 3.21 mg/kg/day, an NOAEL (rat [3]; [18]) of 3.21 mg/kg/day and an LEL (mouse [4]) of 11 mg/kg/day. The LOAEL (mouse [4]) was 11 mg/kg/day, the NEL (mouse [4]) was 1.1 mg/kg/day and the NOAEL (mouse [4]) was 1.1 mg/kg/day. It also gave an LEL (dog [5]; [19]) of 1.73 mg/kg/day, an LOAEL (dog [5]; [19]) of 1.73 mg/kg/day and an NEL (dog [5]; [20]) of 0.346 mg/kg/day. For the same compound, the NOAEL (dog [5]; [20]) was 0.346 mg/kg/day, the LEL (dog [6]) was 15.2 mg/kg/day and the LOAEL (dog [6]) was 15.2 mg/kg/day. The NEL (dog [6]) was 3.38 mg/kg/day, the NOAEL (dog [6]) was 3.38 mg/kg/day and the LEL (rat [7]; [21]) was 0.324 mg/kg/day. It also gave an LOAEL (rat [7]; [21]) of 0.324 mg/kg/day, an NEL (rat [7]; [22]) of 0.031 mg/kg/day and an NOAEL (rat [7]; [22]) of 0.031 mg/kg/day.

C=CC(=C)CCC=C(C)C [Myrcene] gave an LOAEL (mouse [8]; systemic / in life observation / body weight / body weight + systemic / in life observation / body weight / body weight gain) of 1000 mg/kg/day, an LEL (mouse [8]; [23]) of 250 mg/kg/day and an NEL (mouse [8]; [23]) of less than 250 mg/kg/day. For the same compound, the NOAEL (mouse [8]; systemic / organ weight / liver / absolute + systemic / in life observation / body weight / body weight + systemic / in life observation / …) was 500 mg/kg/day, the LEL (rat [9]; [24]) was 1200 mg/kg/day and the LOAEL (rat [9]; [24]) was greater than 1200 mg/kg/day. It also gave an NEL (rat [9]; [24]) of 500 mg/kg/day, an NOAEL (rat [9]; [24]) of no less than 1200 mg/kg/day and an LEL (rat [9]; [25]) of 1200 mg/kg/day. For the same compound, the LOAEL (rat [9]; [25]) was greater than 1200 mg/kg/day, the NEL (rat [9]; [25]) was 500 mg/kg/day and the NOAEL (rat [9]; [25]) was no less than 1200 mg/kg/day. It also gave an LEL (rat [10]) of 250 mg/kg/day, an LOAEL (rat [10]) of 250 mg/kg/day and an NEL (rat [10]) of less than 250 mg/kg/day. The NOAEL (rat [10]) was less than 250 mg/kg/day, the LOAEL (rat [11]; [26]) was greater than 1500 mg/kg/day and the NEL (rat [11]; [26]) was 250 mg/kg/day. For the same compound, the NOAEL (rat [11]; [26]) was no less than 1500 mg/kg/day, the LEL (rat [11]; group: developmental, developmental / developmental malformation / general / [other]) was 500 mg/kg/day and the NEL (rat [11]; group: maternal, reproductive / offspring survival early / dead fetuses / dead fetuses + reproductive / offspring survival early / litter viability other / …) was 250 mg/kg/day. The LEL (rat [11]; group: maternal, reproductive / offspring survival early / litter viability other / litter viability) was 500 mg/kg/day, the LOAEL (rat [11]; [27]) was greater than 1500 mg/kg/day and the NOAEL (rat [11]; [27]) was no less than 1500 mg/kg/day. For the same compound, the LEL (rat [11]; [28]) was 500 mg/kg/day, the LOAEL (rat [11]; [28]) was greater than 1500 mg/kg/day and the NEL (rat [11]; [28]) was 250 mg/kg/day. The NOAEL (rat [11]; [28]) was no less than 1500 mg/kg/day, the LOAEL (rat [11]; [29]) was greater than 1500 mg/kg/day and the NEL (rat [11]; [29]) was 500 mg/kg/day. The NOAEL (rat [11]; [29]) was no less than 1500 mg/kg/day, the LEL (rat [11]; group: parental, systemic / in life observation / body weight / body weight gain + systemic / pathology microscopic / stomach / hyperkeratosis) was 1000 mg/kg/day and the LOAEL (mouse [12]; systemic / in life observation / body weight / body weight + systemic / pathology microscopic / liver / hypertrophy + systemic / pathology …) was 500 mg/kg/day. The NOAEL (mouse [12]; systemic / pathology microscopic / liver / adenoma/carcinoma combined + systemic / in life observation / body weight / body weight + …) was 250 mg/kg/day, the LEL (mouse [12]; [30]) was 250 mg/kg/day and the NEL (mouse [12]; [30]) was less than 250 mg/kg/day. For the same compound, the LEL (rat [13]; [31]) was 250 mg/kg/day, the NEL (rat [13]; [31]) was less than 250 mg/kg/day and the NOAEL (rat [13]; [31]) was 250 mg/kg/day. For the same compound, the LOAEL (rat [13]; systemic / organ weight / kidney / absolute + systemic / organ weight / kidney / relative to body weight + systemic / pathology microscopic…) was 500 mg/kg/day.

From EPA's ToxRefDB 2
